ChEMBL document CHEMBL6182898, “Design, synthesis and bioevaluation of novel hydrazide derivatives as enhancers of immunotherapy and DNA-damage response in antitumor therapy” (Eur J Med Chem, 2025)
Active and inactive are the calls of the source. The rule behind the calls is not given here.

Tests used:
[1] = system: 4T1; assay: Antiproliferative activity against mouse 4T1 cells incubated for 72 hrs by MTT assay; format: functional, cell-based; conditions: 4T1, 72 h
[2] = system: B16-F10; assay: Induction of antitumor immunity in mouse B16-F10 cells assessed as decrease in NCOR2 level at 2.5 to 10 uM incubated for 24 hrs by Western blot analysis; format: functional, cell-based; conditions: dose 2.5-10 µM
[3] = system: B16-F10; assay: Upregulation of Ac-alpha-tubulin level in mouse B16-F10 cells at 2.5 to 10 uM incubated for 24 hrs by Western blot analysis; format: functional, cell-based; conditions: dose 2.5-10 µM
[4] = target: T1, Histone deacetylase 3 (Mus musculus) (UniProt O88895); assay: Inhibition of HDAC3 in mouse B16-F10 cells assessed as increase in Ac-H3 level incubated for 24 hrs by Western blot analysis; format: cell-based; conditions: dose 2.5-10 µM
T1 sequence (whole entry): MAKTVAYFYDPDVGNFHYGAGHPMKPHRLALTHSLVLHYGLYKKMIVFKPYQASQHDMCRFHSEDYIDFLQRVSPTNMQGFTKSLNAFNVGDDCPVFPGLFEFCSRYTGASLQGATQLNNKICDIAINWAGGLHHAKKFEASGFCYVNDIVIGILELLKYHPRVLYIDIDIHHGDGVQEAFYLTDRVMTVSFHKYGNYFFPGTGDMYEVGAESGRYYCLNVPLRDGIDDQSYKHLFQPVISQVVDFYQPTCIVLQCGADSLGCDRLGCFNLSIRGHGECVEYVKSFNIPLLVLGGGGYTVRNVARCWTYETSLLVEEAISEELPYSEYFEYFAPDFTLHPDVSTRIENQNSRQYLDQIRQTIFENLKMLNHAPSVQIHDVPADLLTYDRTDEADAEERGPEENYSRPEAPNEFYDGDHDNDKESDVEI

[5] = system: B16-F10; assay: Induction of apoptosis in mouse B16-F10 cells incubated for 48 hrs by Annexin V-FITC/PI staining based flow cytometry; format: functional, cell-based; conditions: dose 2.5-10 µM
[6] = system: B16-F10; assay: Anti-migratory activity in mouse B16-F10 cells at 1.25 to 5 uM measured after 36 hrs by wound healing assay relative to control; format: functional; conditions: dose 1.25-5 µM
[7] = target: T2, Protein deacetylase HDAC6 (Homo sapiens, UniProt Q9UBN7); assay: Inhibition of HDAC6 (unknown origin)
T2 sequence (Q9UBN7 whole entry): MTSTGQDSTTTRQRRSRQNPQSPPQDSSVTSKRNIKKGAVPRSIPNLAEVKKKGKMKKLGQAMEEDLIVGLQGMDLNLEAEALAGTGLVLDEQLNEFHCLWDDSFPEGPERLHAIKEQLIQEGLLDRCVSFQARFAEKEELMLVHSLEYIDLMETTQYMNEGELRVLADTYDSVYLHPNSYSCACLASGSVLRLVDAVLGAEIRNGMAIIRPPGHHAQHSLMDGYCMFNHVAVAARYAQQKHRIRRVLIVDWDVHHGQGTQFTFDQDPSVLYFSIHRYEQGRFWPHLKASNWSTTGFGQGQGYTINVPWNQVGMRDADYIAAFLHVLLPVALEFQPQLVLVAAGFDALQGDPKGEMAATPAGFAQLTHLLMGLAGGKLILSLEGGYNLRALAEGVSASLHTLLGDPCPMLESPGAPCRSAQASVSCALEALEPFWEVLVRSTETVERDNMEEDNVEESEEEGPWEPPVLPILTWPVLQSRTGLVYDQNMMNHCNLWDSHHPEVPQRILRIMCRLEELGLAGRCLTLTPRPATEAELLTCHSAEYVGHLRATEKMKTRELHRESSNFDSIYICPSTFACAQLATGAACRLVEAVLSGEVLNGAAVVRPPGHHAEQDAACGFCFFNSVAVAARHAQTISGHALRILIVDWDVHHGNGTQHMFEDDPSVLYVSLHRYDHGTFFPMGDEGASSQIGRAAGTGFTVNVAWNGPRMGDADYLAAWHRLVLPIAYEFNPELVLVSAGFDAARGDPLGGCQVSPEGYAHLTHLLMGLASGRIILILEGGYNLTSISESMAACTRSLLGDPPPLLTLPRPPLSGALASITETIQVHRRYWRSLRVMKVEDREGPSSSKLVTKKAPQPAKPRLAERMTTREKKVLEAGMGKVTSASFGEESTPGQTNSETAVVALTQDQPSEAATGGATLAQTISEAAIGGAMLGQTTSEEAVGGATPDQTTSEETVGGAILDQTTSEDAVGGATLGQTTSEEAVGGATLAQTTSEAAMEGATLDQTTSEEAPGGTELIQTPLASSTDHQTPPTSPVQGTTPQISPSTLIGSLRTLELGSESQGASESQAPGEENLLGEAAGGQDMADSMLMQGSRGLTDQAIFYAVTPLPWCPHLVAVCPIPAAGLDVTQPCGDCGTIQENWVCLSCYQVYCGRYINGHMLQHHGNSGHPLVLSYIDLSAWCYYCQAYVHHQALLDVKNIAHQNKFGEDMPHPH

[8] = system: B16-F10; assay: Induction of apoptosis in mouse B16-F10 cells assessed as late-stage apoptosis at 10 uM incubated for 48 hrs by Annexin V-FITC/PI staining based flow cytometry relative to control; format: functional
[9] = system: K562; assay: Antiproliferative activity against human K562 cells incubated for 72 hrs by CCK8 assay; format: functional, cell-based; conditions: K562, 72 h
[10] = system: HCT-116; assay: cells; format: functional; conditions: Homo sapiens, time 72 hrs
[11] = system: 4T1; assay: Induction of DNA damage in mouse 4T1 cells implanted in mouse assessed as increase in gamma-H2AX level at 50 mg/kg/day by immunofluorescence based analysis; format: functional, organism-based
[12] = system: 4T1; assay: Synergistic induction of DNA damage in mouse 4T1 cells implanted in mouse assessed as decrease in PARP level at 25 mg/kg/day in presence of olaparib by Western blot analysis; format: functional, organism-based
[13] = system: B16-F10; assay: Induction of antitumor immunity in mouse B16-F10 cells implanted in male C57BL/6J mouse assessed as increase in T cell infiltration at 25 mg/kg, IG treated for 14 days consecutively in presence of NP-19 by immunofluorescence based analysis; format: functional, organism-based; conditions: time 14.0 day
[14] = Apparent volume of distribution in male Sprague-Dawley rat at 2 mg/kg, iv measured for 0.083 to 12 hrs by LC-MS/MS analysis; format: ADME, organism-based; conditions: in vivo, time 0.083-12 hrs, read-out: Vz
[15] = system: 4T1; assay: Induction of DNA damage in mouse 4T1 cells implanted in mouse assessed as decrease in PARP level at 50 mg/kg/day by Western blot analysis; format: functional, organism-based
[16] = Toxicity in male C57BL/6J mouse implanted with mouse B16-F10 cells assessed as histopathological damage in heart at 25 mg/kg, IG treated for 14 days consecutively in presence of NP-19 by H and E staining based analysis; format: organism-based; conditions: in vivo, po, 336 h, time 14 day
[17] = Toxicity in male C57BL/6J mouse implanted with mouse B16-F10 cells assessed as body weight change at 50 mg/kg, IG treated for 14 days consecutively; format: organism-based; conditions: in vivo, po, 336 h, time 14 day
[18] = Toxicity in male C57BL/6J mouse implanted with mouse B16-F10 cells assessed as histopathological damage in liver at 50 mg/kg, IG treated for 14 days consecutively by H and E staining based analysis; format: organism-based; conditions: in vivo, po, 336 h, time 14 day

With `CCCNNC(=O)c1ccc(NC(=O)c2cnc(-c3ccc(OC(F)(F)F)cc3)s2)cc1` the IC50 [1] was 7.57 µM, the Activity [2] was “Active” and the Activity [3] was “inactive”. For the same compound, the inhibition [4] was “Dose-dependent-effect”, the Activity [5] was “Dose-dependent-effect; Activity Similar To Vorinostat” and the Activity [6] was over 80%. The IC50 [7] was over 10 µM, the Activity [8] was 55.3% and the IC50 [9] was 4.57 µM. For the same compound, the inhibition at 10 µM [10] was under 50%.

In the case of `CCCNNC(=O)CCCCCCNC(=O)c1cnc(-c2ccc(NC(=O)OC(C)(C)C)cc2)s1`, the IC50 [1] is reported as 9.83 µM, the Activity [2] is reported as “Active” and the Activity [11] is reported as “Active”. The Activity [12] was “Active”, the Activity [3] was “inactive” and the inhibition [4] was “Dose-dependent-effect”. For the same compound, the Activity [13] was “Active”, the Activity [5] was “Dose-dependent-effect; Activity Similar To Vorinostat” and the Activity [6] was over 80%. For the same compound, the Vd [14] was 10.6 L/kg, the Activity [15] was “Active” and the IC50 [7] was over 10 µM. For the same compound, the Activity [8] was 51.5%, the Activity [16] was “Non-toxic” and the IC50 [9] was 1.06 µM. The Activity [17] was “Non-toxic”, the inhibition at 10 µM [10] was 93.6% and the Activity [18] was “Non-toxic”.
